Patent publication US12011517B2, “Air freshening product” (The Procter & Gamble Company, priority 2019, dated 2024)

Row | Compound | Average Vapor Pressure (Torr) at 25 degrees Celsius
1 | CCC/C=C/C=O [(E)-2-Hexen-1-al] | 10.7 Torr
2 | CCCCCCC/C=C/C=O [(E)-2-Decen-1-al] | 0.0674 Torr
